Assays:
[1] = target: Prothrombin (Homo sapiens, UniProt P00734); test: Compound was evaluated to inhibit the thrombin enzyme
[2] = target: Serine protease 1 (Homo sapiens, UniProt P07477); test: Compound was evaluated to inhibit the trypsin enzyme
[3] = species: Homo sapiens; test: Compound was evaluated for its anticoagulant and antithrombotic activity by measuring the %protein binding in human plasma; type: functional, cell-free
[4] = Partition coefficient (logP); type: physicochemical; settings: octanol/water
[5] = species: Rattus norvegicus; test: Compound was evaluated for its anticoagulant and antithrombotic activity by measuring the final plasma concentration in rat plasma; type: functional, organism-based
[6] = Compound was evaluated for its anticoagulant and antithrombotic activity by measuring the clotting parameter in human plasma; type: functional
[7] = Compound was evaluated for Clearance in dogs at a dose of 1 mpk intravenously; type: ADME, organism-based, Canis lupus familiaris; settings: dog, in vivo, iv, 1 mg/kg; read-out: CI
[8] = Compound was evaluated for area under curve (total concentration) in dogs at a dose of 5 mpk perorally; type: ADME, organism-based, Canis lupus familiaris; settings: dog, in vivo, po, 5 mg/kg
[9] = Bioavailability as Cmax in dogs at 5 mg/kg oral dose; type: ADME, organism-based, Canis lupus familiaris; design: dose 5 mg/kg, route oral; settings: dog, in vivo
[10] = species: Rattus norvegicus; test: Compound was evaluated for its anticoagulant and antithrombotic activity by measuring the %protein binding in rat plasma; type: functional, organism-based
[11] = Bioavailability as Vdss in dogs at 1 mg/kg intravenous dose; type: ADME, organism-based, Canis lupus familiaris; settings: dog, in vivo, read-out: Vdss
[12] = Compound was evaluated for area under curve (total concentration) in dogs at a dose of 1 mpk perorally; type: ADME, organism-based, Canis lupus familiaris; settings: dog, in vivo, po, 1 mg/kg
[13] = (§1) Compound was evaluated for half-life period in dogs at a dose of 5 mpk perorally; type: ADME, organism-based, Canis lupus familiaris; settings: dog, in vivo, po, 5 mg/kg
[14] = species: Rattus norvegicus; test: Compound was evaluated for its anticoagulant and antithrombotic activity by measuring the clotting parameter in rat plasma; type: functional
[15] = species: Canis familiaris; test: as §1; type: ADME, organism-based, Canis lupus familiaris; settings: dog, in vivo, po, 5 mg/kg

Chain of Serine protease 1 (P07477 whole entry): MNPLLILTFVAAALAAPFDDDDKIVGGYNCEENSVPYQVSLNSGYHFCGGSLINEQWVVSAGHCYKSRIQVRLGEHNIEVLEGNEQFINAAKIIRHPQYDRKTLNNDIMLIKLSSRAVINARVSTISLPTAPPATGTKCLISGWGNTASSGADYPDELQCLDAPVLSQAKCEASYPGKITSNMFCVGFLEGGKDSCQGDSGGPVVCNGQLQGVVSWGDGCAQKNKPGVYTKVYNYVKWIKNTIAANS

Cc1nc(N)ccc1CNC(=O)Cn1c(C(F)(F)F)ccc(NS(=O)(=O)Cc2ccccc2)c1=O
Ki [1]: 12 nM
Ki [2]: 2500 nM

Cc1nc(N)ccc1CNC(=O)Cn1c(C)ccc(NS(=O)(=O)Cc2ccc(Cl)cc2)c1=O
Ki [1]: 0.12 nM
Ki [2]: 2600 nM

Cc1nc(N)ccc1CNC(=O)Cn1c(C2CC2)ccc(NS(=O)(=O)Cc2ccc(Cl)cc2)c1=O
PPB [3]: 94%
logP [4]: 1.98
Ki [1]: 4 nM
Plasma concentration [5]: 0.347 µM
2x APTT [6]: 1.43 µM
Ki [2]: 1900 nM

Cc1nc(N)ccc1CNC(=O)Cn1c(C(F)(F)F)ccc(NS(=O)(=O)Cc2ccc(Cl)cc2)c1=O
Ki [1]: 2.6 nM
Ki [2]: 3400 nM

Cc1nc(N)ccc1CNC(=O)Cn1c(C2CC2)ccc(NS(=O)(=O)Cc2ccccc2)c1=O
Ki [1]: 16 nM
Ki [2]: 1700 nM

CCCc1ccc(NS(=O)(=O)Cc2ccccc2)c(=O)n1CC(=O)NCc1ccc(N)nc1C
PPB [3]: 88%
clearance [7]: 5.82 mL/min/kg
AUC [8]: 40.6 µM·h
logP [4]: 1.52
Cmax [9]: 9.46 µM
PPB [10]: 75%
Vd [11]: 0.54 L/kg
AUC [12]: 5.93 µM·h
half-life [13]: 3.15 h
Ki [1]: 0.85 nM
Plasma concentration [5]: 0.389 µM
2x APTT [6]: 0.32 µM
Ki [2]: 1400 nM
2x APTT [14]: 0.4 µM

Cc1nc(N)ccc1CNC(=O)Cn1c(C)ccc(NS(=O)(=O)Cc2ccccc2)c1=O [L-374087]
PPB [3]: 78%
clearance [7]: 3.8 mL/min/kg
AUC [8]: 18.8 µM·h
logP [4]: 0.69
Cmax [9]: 5.31 µM
PPB [10]: 47%
Vd [11]: 0.46 L/kg
AUC [12]: 9.92 µM·h
T1/2 [15]: 2.52 h
Plasma concentration [5]: 0.586 µM
2x APTT [6]: 0.22 µM
2x APTT [14]: 0.25 µM
